# Results published in ChEMBL document CHEMBL1240295, “Specificity and mechanism of action of some commonly used protein kinase inhibitors” (Biochem J, 2000).
# Key:
# Oryctolagus cuniculus [1] = species: Oryctolagus cuniculus; experiment: Inhibition of rabbit MKK1 expressed in Escherichia coli at 50 uM; values are per cent of control
# [2] = molecular target: Protein kinase C alpha type (Homo sapiens, UniProt P17252); experiment: Inhibition of His-tagged human PKCalpha expressed in Escherichia coli at 50 uM; values are per cent of control
# Oryctolagus cuniculus [3] = species: Oryctolagus cuniculus; experiment: Inhibition of PHK from rabbit skeletal muscle at 50 uM; values are per cent of control; conditions: Muscle tissue
# [4] = molecular target: T1, Serine/threonine-protein kinase Sgk1 (Homo sapiens) (UniProt O00141); experiment: Inhibition of His-tagged human SGK expressed in Sf9 cells at 50 uM; values are per cent of control
# T1 sequence (whole entry): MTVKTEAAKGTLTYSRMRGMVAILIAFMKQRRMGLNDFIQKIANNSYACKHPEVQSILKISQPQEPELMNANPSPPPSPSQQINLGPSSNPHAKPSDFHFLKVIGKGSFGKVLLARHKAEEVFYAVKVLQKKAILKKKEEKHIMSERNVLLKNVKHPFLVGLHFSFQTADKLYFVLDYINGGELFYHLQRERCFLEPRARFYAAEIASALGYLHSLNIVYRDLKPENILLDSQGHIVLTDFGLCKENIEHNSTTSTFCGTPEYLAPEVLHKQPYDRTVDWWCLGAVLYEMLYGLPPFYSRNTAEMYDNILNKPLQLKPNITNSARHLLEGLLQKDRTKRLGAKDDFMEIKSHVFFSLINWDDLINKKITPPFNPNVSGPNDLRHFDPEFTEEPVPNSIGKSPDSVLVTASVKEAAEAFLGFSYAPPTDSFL
# [5] = molecular target: T2, Ribosomal protein S6 kinase alpha-5 (Homo sapiens, UniProt O75582); experiment: Inhibition of His-tagged human MSK1 expressed in Sf9 cells at 50 uM; values are per cent of control
# [6] = molecular target: RAC-alpha serine/threonine-protein kinase (Homo sapiens) (UniProt P31749); experiment: Inhibition of human PKBalpha expressed in SF9 cells at 50 uM; values are per cent of control
# [7] = molecular target: T3, Ribosomal protein S6 kinase beta-1 (Homo sapiens, UniProt P23443); experiment: Inhibition of His-tagged human S6K1 expressed in Escherichia coli at 50 uM; values are per cent of control
# [8] = molecular target: Glycogen synthase kinase-3 beta (Homo sapiens, UniProt P49841); experiment: Inhibition of His-tagged human GSK3b expressed in Sf21 cells at 50 uM; values are per cent of control
# Oryctolagus cuniculus [9] = species: Oryctolagus cuniculus; experiment: Inhibition of MAPKAPK1b from rabbit skeletal muscle at 50 uM; values are per cent of control; conditions: Muscle tissue
# [10] = molecular target: [Pyruvate dehydrogenase (acetyl-transferring)] kinase isozyme 1, mitochondrial (Homo sapiens) (UniProt Q15118); experiment: Inhibition of His-tagged human PDK1 expressed in Sf21 cells at 50 uM; conditions: values are per cent of control
# [11] = molecular target: T4, Casein kinase II (Homo sapiens) (UniProt P67870+P68400+P19784); experiment: Inhibition of His-tagged human CK2 expressed in Sf9 cells at 50 uM; values are per cent of control
# [12] = molecular target: Mitogen-activated protein kinase 14 (Homo sapiens) (UniProt Q16539); experiment: Inhibition of His-tagged human SAPK2a/p38 expressed in Escherichia coli at 50 uM; values are per cent of control
# [13] = molecular target: Rho-associated protein kinase 2 (Rattus norvegicus) (UniProt Q62868); experiment: Inhibition of rat ROCK2 expressed in Sf9 cells at 50 uM; conditions: values are per cent of control
# Bos taurus [14] = species: Bos taurus; experiment: Inhibition of bovine heart PKA at 50 uM; values are per cent of control
# [15] = molecular target: T5, Mitogen-activated protein kinase 12 (Homo sapiens) (UniProt P53778); experiment: Inhibition of His-tagged human SAPK3/p38gamma expressed in Escherichia coli at 50 uM; values are per cent of control
# T5 sequence (whole entry): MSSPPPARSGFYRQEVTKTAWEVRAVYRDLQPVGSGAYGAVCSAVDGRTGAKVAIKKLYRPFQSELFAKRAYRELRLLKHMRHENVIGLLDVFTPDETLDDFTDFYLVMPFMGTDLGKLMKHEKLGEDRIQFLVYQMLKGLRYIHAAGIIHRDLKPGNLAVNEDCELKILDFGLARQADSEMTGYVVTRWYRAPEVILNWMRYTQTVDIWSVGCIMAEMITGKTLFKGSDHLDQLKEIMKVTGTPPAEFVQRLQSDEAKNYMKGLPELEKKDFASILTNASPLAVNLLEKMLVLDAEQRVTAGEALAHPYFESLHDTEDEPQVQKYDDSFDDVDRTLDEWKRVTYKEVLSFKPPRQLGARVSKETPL
# Rattus norvegicus [16] = species: Rattus norvegicus; experiment: Inhibition of rat liver AMPK at 50 uM; values are per cent of control
# [17] = molecular target: T6, Serine/threonine-protein kinase Chk1 (Homo sapiens) (UniProt O14757); experiment: Inhibition of His-tagged human CHK1 expressed in Escherichia coli at 50 uM; values are per cent of control
# T6 sequence (whole entry): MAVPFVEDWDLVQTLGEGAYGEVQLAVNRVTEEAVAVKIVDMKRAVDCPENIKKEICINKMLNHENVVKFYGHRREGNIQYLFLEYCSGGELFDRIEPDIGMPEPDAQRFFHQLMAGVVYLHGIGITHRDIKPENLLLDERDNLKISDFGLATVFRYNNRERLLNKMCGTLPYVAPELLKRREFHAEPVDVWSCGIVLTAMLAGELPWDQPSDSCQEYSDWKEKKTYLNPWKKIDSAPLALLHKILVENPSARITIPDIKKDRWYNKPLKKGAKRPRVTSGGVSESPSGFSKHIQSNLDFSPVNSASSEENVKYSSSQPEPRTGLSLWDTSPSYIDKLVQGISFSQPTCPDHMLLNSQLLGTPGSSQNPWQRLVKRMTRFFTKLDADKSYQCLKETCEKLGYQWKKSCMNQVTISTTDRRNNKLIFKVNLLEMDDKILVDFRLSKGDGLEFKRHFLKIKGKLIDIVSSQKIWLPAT
# [18] = molecular target: MAP kinase-activated protein kinase 2 (Homo sapiens, UniProt P49137); experiment: Inhibition of His-tagged human MAPKAPK2 expressed in Escherichia coli at 50 uM; values are per cent of control
# [19] = molecular target: T7, Mitogen-activated protein kinase 13 (Homo sapiens) (UniProt O15264); experiment: Inhibition of His-tagged human SAPK4/p38delta expressed in Escherichia coli at 50 uM; values are per cent of control
# T7 sequence (whole entry): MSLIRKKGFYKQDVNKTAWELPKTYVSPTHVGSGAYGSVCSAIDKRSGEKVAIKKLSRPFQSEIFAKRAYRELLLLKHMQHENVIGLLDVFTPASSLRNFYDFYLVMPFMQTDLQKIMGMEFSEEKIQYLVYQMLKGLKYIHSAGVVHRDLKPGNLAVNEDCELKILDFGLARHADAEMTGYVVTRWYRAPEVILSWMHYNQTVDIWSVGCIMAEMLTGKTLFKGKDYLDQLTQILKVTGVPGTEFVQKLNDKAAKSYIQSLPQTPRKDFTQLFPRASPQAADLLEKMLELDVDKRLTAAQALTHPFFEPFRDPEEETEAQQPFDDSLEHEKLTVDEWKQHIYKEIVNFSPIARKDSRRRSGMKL
# [20] = molecular target: Mitogen-activated protein kinase 1 (Homo sapiens) (UniProt P28482); experiment: Inhibition of His-tagged human MAPK2/ERK2 expressed in Escherichia coli at 50 uM; values are per cent of control
# [21] = molecular target: Mitogen-activated protein kinase 8 (Homo sapiens) (UniProt P45983); experiment: Inhibition of His-tagged human JNK1a1/SAPK1c expressed in Escherichia coli at 50 uM; values are per cent of control
# [22] = molecular target: Mitogen-activated protein kinase 11 (Homo sapiens) (UniProt Q15759); experiment: Inhibition of His-tagged human SAPK2b/p38b2 expressed in Escherichia coli at 50 uM; values are per cent of control
# [23] = molecular target: T3, Ribosomal protein S6 kinase beta-1; experiment: Inhibition of His-tagged human S6K1 expressed in Escherichia coli at 20 uM; values are per cent of control
# Rattus norvegicus [24] = species: Rattus norvegicus; experiment: Inhibition of rat liver AMPK at 20 uM; values are per cent of control
# [25] = molecular target: Mitogen-activated protein kinase 8 (Homo sapiens) (UniProt P45983); experiment: Inhibition of His-tagged human JNK1a1/SAPK1c expressed in Escherichia coli at 20 uM; values are per cent of control
# [26] = molecular target: T6, Serine/threonine-protein kinase Chk1 (Homo sapiens); experiment: Inhibition of His-tagged human CHK1 expressed in Escherichia coli at 20 uM; values are per cent of control
# [27] = molecular target: T4, Casein kinase II (Homo sapiens); experiment: Inhibition of His-tagged human CK2 expressed in Sf9 cells at 20 uM; conditions: values are per cent of control
# [28] = molecular target: T2, Ribosomal protein S6 kinase alpha-5; experiment: Inhibition of His-tagged human MSK1 expressed in Sf9 cells at 20 uM; values are per cent of control
# [29] = molecular target: Mitogen-activated protein kinase 11 (Homo sapiens) (UniProt Q15759); experiment: Inhibition of His-tagged human SAPK2b/p38b2 expressed in Escherichia coli at 20 uM; values are per cent of control
# Oryctolagus cuniculus [30] = species: Oryctolagus cuniculus; experiment: Inhibition of PHK from rabbit skeletal muscle at 20 uM; values are per cent of control; conditions: Muscle tissue
# [31] = molecular target: T7, Mitogen-activated protein kinase 13 (Homo sapiens); experiment: Inhibition of His-tagged human SAPK4/p38delta expressed in Escherichia coli at 20 uM; conditions: values are per cent of control
# [32] = molecular target: Serine/threonine-protein kinase N2 (Homo sapiens) (UniProt Q16513); conditions: HEK293, 20 uM
# Description: Inhibition of His-tagged human PRK2 expressed in HEK293 cells at 20 uM
# Bos taurus [33] = species: Bos taurus; experiment: Inhibition of bovine heart PKA at 20 uM; values are per cent of control
# T2 sequence (O75582 whole entry, looked up): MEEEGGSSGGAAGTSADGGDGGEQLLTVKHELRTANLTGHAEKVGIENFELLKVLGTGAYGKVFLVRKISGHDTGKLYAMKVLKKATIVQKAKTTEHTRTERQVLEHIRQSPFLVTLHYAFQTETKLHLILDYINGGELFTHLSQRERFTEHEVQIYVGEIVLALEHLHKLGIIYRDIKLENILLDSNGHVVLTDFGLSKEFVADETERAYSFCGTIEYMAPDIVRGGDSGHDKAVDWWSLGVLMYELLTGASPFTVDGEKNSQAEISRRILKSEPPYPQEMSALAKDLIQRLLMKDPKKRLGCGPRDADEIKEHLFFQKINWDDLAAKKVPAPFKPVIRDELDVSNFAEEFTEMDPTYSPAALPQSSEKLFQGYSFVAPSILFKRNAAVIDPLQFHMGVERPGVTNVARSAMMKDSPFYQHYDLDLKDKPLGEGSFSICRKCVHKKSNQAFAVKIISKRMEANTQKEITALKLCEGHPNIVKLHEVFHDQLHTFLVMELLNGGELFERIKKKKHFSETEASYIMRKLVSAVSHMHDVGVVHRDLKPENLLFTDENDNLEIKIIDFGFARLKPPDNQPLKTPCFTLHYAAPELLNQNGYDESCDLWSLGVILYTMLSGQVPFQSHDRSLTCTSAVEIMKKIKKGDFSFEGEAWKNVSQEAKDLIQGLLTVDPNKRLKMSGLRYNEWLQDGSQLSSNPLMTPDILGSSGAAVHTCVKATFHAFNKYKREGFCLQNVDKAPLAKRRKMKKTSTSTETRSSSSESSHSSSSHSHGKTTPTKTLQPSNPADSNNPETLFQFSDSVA
# T3 sequence (P23443 whole entry, looked up): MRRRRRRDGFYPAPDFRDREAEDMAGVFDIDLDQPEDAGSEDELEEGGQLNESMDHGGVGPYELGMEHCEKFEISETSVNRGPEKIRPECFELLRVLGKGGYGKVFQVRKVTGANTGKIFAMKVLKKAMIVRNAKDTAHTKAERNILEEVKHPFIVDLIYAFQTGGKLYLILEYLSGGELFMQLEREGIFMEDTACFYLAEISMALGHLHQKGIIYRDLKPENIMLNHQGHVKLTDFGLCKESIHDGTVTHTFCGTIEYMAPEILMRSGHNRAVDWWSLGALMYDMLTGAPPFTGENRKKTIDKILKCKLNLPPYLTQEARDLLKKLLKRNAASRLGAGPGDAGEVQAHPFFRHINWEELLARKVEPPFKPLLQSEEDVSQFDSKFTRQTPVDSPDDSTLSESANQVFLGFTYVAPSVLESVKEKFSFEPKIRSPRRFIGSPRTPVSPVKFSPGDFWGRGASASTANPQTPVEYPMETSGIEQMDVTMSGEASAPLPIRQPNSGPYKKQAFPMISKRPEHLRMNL
# Chain of Mitogen-activated protein kinase 11 (Homo sapiens) (Q15759 whole entry): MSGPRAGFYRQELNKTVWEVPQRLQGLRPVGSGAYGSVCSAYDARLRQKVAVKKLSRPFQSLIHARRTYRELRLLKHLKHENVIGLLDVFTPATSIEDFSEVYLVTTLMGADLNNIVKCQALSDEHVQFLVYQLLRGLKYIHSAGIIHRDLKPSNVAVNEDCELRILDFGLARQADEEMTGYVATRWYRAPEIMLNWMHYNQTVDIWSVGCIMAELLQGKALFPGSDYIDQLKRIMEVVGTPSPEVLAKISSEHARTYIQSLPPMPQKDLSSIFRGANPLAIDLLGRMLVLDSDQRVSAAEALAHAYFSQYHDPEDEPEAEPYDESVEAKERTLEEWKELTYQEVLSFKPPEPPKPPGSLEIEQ
# Chain of Mitogen-activated protein kinase 8 (Homo sapiens) (P45983 whole entry): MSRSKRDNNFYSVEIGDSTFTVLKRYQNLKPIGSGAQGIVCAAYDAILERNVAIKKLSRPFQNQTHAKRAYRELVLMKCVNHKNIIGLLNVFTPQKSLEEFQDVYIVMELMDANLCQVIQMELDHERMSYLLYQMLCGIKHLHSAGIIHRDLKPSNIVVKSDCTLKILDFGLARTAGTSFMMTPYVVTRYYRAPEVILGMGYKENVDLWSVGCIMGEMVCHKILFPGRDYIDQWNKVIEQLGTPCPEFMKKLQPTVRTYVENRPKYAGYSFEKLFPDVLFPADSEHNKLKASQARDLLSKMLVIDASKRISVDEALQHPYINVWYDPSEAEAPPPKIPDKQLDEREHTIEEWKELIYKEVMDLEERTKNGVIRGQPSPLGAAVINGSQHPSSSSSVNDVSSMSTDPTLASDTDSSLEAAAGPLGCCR
# Chain of MAP kinase-activated protein kinase 2 (P49137 whole entry, looked up): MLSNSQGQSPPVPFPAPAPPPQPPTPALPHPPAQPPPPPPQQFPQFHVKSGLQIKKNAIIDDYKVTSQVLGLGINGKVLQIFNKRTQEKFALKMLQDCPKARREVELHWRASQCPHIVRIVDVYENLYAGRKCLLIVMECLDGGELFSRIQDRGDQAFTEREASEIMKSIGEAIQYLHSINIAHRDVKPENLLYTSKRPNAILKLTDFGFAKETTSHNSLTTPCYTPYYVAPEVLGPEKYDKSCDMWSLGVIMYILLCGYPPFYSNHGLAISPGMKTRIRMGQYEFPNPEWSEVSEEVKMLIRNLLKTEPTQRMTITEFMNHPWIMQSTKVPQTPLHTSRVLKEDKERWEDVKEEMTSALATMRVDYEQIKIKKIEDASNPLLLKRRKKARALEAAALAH
# Chain of Mitogen-activated protein kinase 1 (Homo sapiens) (P28482 whole entry): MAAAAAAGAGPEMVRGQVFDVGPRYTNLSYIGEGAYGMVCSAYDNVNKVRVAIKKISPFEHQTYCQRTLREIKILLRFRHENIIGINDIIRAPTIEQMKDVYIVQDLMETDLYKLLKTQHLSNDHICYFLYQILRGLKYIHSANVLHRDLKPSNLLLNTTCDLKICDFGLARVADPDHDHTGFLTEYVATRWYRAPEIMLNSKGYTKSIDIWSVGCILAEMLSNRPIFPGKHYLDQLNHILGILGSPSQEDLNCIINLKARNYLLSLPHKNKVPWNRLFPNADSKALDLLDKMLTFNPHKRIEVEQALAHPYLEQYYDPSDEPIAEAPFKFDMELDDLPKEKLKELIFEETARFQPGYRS
# Chain of Serine/threonine-protein kinase N2 (Homo sapiens) (Q16513 whole entry, looked up): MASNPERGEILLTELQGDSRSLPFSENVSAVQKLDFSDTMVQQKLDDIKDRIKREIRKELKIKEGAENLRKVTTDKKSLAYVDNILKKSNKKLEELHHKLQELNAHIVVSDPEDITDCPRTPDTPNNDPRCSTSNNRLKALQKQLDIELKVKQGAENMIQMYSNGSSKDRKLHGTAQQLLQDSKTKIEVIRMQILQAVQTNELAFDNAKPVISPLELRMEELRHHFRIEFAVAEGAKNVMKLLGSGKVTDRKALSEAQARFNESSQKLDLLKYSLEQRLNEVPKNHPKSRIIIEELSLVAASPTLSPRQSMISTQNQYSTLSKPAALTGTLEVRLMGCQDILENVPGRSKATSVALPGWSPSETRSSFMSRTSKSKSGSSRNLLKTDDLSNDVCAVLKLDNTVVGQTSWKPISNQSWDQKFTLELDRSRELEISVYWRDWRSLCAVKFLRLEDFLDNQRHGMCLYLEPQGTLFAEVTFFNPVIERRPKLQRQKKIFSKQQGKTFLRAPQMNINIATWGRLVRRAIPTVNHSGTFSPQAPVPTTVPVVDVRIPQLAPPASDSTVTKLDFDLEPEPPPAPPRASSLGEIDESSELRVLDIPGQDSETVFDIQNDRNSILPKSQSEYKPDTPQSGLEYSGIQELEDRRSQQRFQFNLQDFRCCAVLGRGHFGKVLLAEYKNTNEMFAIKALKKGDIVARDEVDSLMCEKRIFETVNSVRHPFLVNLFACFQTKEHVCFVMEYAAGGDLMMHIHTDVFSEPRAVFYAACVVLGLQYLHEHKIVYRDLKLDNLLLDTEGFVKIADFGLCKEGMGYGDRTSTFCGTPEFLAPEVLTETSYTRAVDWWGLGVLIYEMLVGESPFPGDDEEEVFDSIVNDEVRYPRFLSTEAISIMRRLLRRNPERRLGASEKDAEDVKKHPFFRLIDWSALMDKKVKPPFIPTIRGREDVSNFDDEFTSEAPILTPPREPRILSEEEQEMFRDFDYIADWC
# Chain of Mitogen-activated protein kinase 14 (Homo sapiens) (Q16539 whole entry): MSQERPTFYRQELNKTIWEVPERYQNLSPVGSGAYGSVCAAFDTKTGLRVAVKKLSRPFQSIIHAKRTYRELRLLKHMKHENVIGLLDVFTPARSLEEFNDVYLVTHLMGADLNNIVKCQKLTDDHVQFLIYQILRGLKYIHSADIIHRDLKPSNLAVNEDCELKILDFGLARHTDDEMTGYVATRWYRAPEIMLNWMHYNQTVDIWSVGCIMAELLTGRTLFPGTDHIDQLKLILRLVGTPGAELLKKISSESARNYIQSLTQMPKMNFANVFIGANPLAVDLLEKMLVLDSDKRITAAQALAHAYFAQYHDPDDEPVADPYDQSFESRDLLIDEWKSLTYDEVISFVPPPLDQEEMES
smiles,measurement,setting,value
COc1cccc(-c2cc(=O)c3ccccc3o2)c1N,residual activity,Oryctolagus cuniculus [1],89%
same,residual activity,[2],93%
same,"level, % of control",Oryctolagus cuniculus [3],87%
same,residual activity,[4],90%
same,residual activity,[5],86%
same,residual activity,[6],82%
same,residual activity,[7],100%
same,residual activity,[8],101%
same,"level, % of control",Oryctolagus cuniculus [9],93%
same,residual activity,[10],86%
same,residual activity,[11],87%
same,residual activity,[12],85%
same,residual activity,[13],80%
same,residual activity,Bos taurus [14],106%
same,residual activity,[15],96%
same,residual activity,Rattus norvegicus [16],97%
same,residual activity,[17],99%
same,residual activity,[18],95%
same,residual activity,[19],94%
same,residual activity,[20],85%
same,residual activity,[21],111%
same,residual activity,[22],95%
O=S(=O)(c1cccc2cnccc12)N1CCCNCC1,residual activity,[23],32%
same,residual activity,Rattus norvegicus [24],77%
same,residual activity,[25],96%
same,residual activity,[26],82%
same,residual activity,[27],102%
same,residual activity,[28],19%
same,residual activity,[29],97%
same,"level, % of control",Oryctolagus cuniculus [30],58%
same,residual activity,[31],103%
same,inhibition,[32],15%
same,residual activity,Bos taurus [33],35%
